# Key:
# Assay in all cases: cells
# DBTRG-05MG = assay type: functional, cell-based, Homo sapiens; settings: Homo sapiens, DBTRG-05MG;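 note: cell viability assay measuring growth inhibition of human DBTRG-05MG cells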
# Description: SANGER: Inhibition of human DBTRG-05MG cell growth in a cell viability assay.
# CPC-N = assay type: functional, cell-based, Homo sapiens; settings: Homo sapiens, CPC-N;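 note: growth inhibition of CPC-N cells, with a cell viability assay as the readout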
# Description: SANGER: Inhibition of human CPC-N cell growth in a cell viability assay.
# LXF-289 cell line = assay type: functional, cell-based, Homo sapiens; settings: Homo sapiens, LXF-289
# Description: SANGER: Inhibition of human LXF-289 cell growth in a cell viability assay.
# NCI-H2087 = assay type: functional, cell-based, Homo sapiens; settings: Homo sapiens, NCI-H2087;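 note: growth inhibition determined with a cell viability readout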
# Description: SANGER: Inhibition of human NCI-H2087 cell growth in a cell viability assay.
# VMRC-RCZ = assay type: functional, cell-based, Homo sapiens; settings: Homo sapiens, VMRC-RCZ;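 note: growth inhibition measured with a cell viability assay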
# Description: SANGER: Inhibition of human VMRC-RCZ cell growth in a cell viability assay.
# NCI-H2342 = assay type: functional, cell-based, Homo sapiens; settings: Homo sapiens, NCI-H2342;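 note: growth inhibition of the cancer cell line, determined with a cell viability assay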
# Description: SANGER: Inhibition of human NCI-H2342 cell growth in a cell viability assay.
# SJRH30 = assay type: functional, cell-based, Homo sapiens; settings: Homo sapiens, SJRH30;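 note: growth inhibition of human SJRH30 cells, read out with a cell viability assay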
# Description: SANGER: Inhibition of human SJRH30 cell growth in a cell viability assay.
# ME-180 = assay type: functional, cell-based, Homo sapiens; settings: Homo sapiens, ME-180;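 note: cell viability assay measuring growth inhibition of ME-180 cells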
# Description: SANGER: Inhibition of human ME-180 cell growth in a cell viability assay.
# NCI-H716 = assay type: functional, cell-based, Homo sapiens; settings: Homo sapiens, NCI-H716;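 note: growth inhibition of human NCI-H716 cells, measured by a cell viability assay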
# Description: SANGER: Inhibition of human NCI-H716 cell growth in a cell viability assay.
# A2780 = assay type: functional, cell-based, Homo sapiens; settings: Homo sapiens, A2780;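 note: growth inhibition of A2780 cells, read out with a cell viability assay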
# Description: SANGER: Inhibition of human A2780 cell growth in a cell viability assay.
# LB996-RCC = assay type: functional, cell-based, Homo sapiens; settings: Homo sapiens, LB996-RCC
# Description: SANGER: Inhibition of human LB996-RCC cell growth in a cell viability assay.
# NCI-H720 = assay type: functional, cell-based, Homo sapiens; settings: Homo sapiens, NCI-H720;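 note: growth inhibition of human NCI-H720 cells determined by a cell viability assay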
# Description: SANGER: Inhibition of human NCI-H720 cell growth in a cell viability assay.
# LNCaP-Clone-FGC = assay type: functional, cell-based, Homo sapiens; settings: Homo sapiens, LNCaP-Clone-FGC
# Description: SANGER: Inhibition of human LNCaP-Clone-FGC cell growth in a cell viability assay.
# MSTO-211H = assay type: functional, cell-based, Homo sapiens; settings: Homo sapiens, MSTO-211H
# Description: SANGER: Inhibition of human MSTO-211H cell growth in a cell viability assay.
# Calu-3 = assay type: functional, cell-based, Homo sapiens; settings: Homo sapiens, Calu-3;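 note: growth inhibition of human Calu-3 cells, determined with a cell viability assay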
# Description: SANGER: Inhibition of human Calu-3 cell growth in a cell viability assay.
# MHH-ES-1 = assay type: functional, cell-based, Homo sapiens; settings: Homo sapiens, MHH-ES-1;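 note: cell growth inhibition measured by a cell viability assay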
# Description: SANGER: Inhibition of human MHH-ES-1 cell growth in a cell viability assay.
# HCC1569 = assay type: functional, cell-based, Homo sapiens; settings: Homo sapiens, HCC1569;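 note: growth inhibition of human HCC1569 cells, read out with a cell viability assay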
# Description: SANGER: Inhibition of human HCC1569 cell growth in a cell viability assay.
# HCE-4 = assay type: functional, cell-based, Homo sapiens; settings: Homo sapiens, HCE-4;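 note: cell viability assay measuring inhibition of growth in the human HCE-4 cell line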
# Description: SANGER: Inhibition of human HCE-4 cell growth in a cell viability assay.
# MRK-nu-1 = assay type: functional, cell-based, Homo sapiens; settings: Homo sapiens, MRK-nu-1;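 note: cell viability assay measuring growth suppression of human MRK-nu-1 cells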
# Description: SANGER: Inhibition of human MRK-nu-1 cell growth in a cell viability assay.
# UMUC3 = assay type: functional, cell-based, Homo sapiens; settings: Homo sapiens, UMUC3;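 note: growth inhibition of human UM-UC-3 cells, read out with a cell viability assay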
# Description: SANGER: Inhibition of human UM-UC-3 cell growth in a cell viability assay.
# HT-3 = assay type: functional, cell-based, Homo sapiens; settings: Homo sapiens, HT-3;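 note: growth inhibition measured with a cell viability readout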
# Description: SANGER: Inhibition of human HT-3 cell growth in a cell viability assay.
# SK-MEL-24 = assay type: functional, cell-based, Homo sapiens; settings: Homo sapiens, SK-MEL-24;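 note: growth inhibition read out by a cell viability assay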
# Description: SANGER: Inhibition of human SK-MEL-24 cell growth in a cell viability assay.
# OS-RC-2 = assay type: functional, cell-based, Homo sapiens; settings: Homo sapiens, OS-RC-2;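 note: growth inhibition of human OS-RC-2 cells, measured by a cell viability assay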
# Description: SANGER: Inhibition of human OS-RC-2 cell growth in a cell viability assay.
# Detroit 562 = assay type: functional, cell-based, Homo sapiens; settings: Homo sapiens, Detroit 562;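 note: growth inhibition of human Detroit 562 cells, read out by a cell viability assay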
# Description: SANGER: Inhibition of human Detroit562 cell growth in a cell viability assay.
# MPP-89 = assay type: functional, cell-based, Homo sapiens; settings: Homo sapiens, MPP-89;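 note: growth inhibition of human MPP-89 cells, read out with a cell viability assay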
# Description: SANGER: Inhibition of human MPP-89 cell growth in a cell viability assay.
# SK-N-DZ = assay type: functional, cell-based, Homo sapiens; settings: Homo sapiens, SK-N-DZ;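 note: growth inhibition of the cancer cell line, read out through a viability assay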
# Description: SANGER: Inhibition of human SK-N-DZ cell growth in a cell viability assay.
# HOS = assay type: functional, cell-based, Homo sapiens; settings: Homo sapiens, HOS;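 note: growth inhibition of human HOS cells, read out with a cell viability assay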
# Description: SANGER: Inhibition of human HOS cell growth in a cell viability assay.
# THP-1 = assay type: functional, cell-based, Homo sapiens; settings: Homo sapiens, THP-1;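 note: growth inhibition of THP-1 cells, read out via a cell viability assay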
# Description: SANGER: Inhibition of human THP-1 cell growth in a cell viability assay.
# D-542MG = assay type: functional, cell-based, Homo sapiens; settings: Homo sapiens, D-542MG
# Description: SANGER: Inhibition of human D-542MG cell growth in a cell viability assay.
# HSC-2 = assay type: functional, cell-based, Homo sapiens; settings: Homo sapiens, HSC-2;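 note: growth inhibition of human HSC-2 cells, read out by a cell viability assay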
# Description: SANGER: Inhibition of human HSC-2 cell growth in a cell viability assay.
# NCI-H226 = assay type: functional, cell-based, Homo sapiens; settings: Homo sapiens, NCI-H226;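 note: cell viability read-out used to gauge growth inhibition of the cells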
# Description: SANGER: Inhibition of human NCI-H226 cell growth in a cell viability assay.
# LS-411N = assay type: functional, cell-based, Homo sapiens; settings: Homo sapiens, LS-411N
# 639-V = assay type: functional, cell-based, Homo sapiens; settings: Homo sapiens, 639-V;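 note: growth inhibition of 639-V cells, read out with a cell viability assay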
# Description: SANGER: Inhibition of human 639-V cell growth in a cell viability assay.
# HT-1376 = assay type: functional, cell-based, Homo sapiens; settings: Homo sapiens, HT-1376
# Description: SANGER: Inhibition of human HT-1376 cell growth in a cell viability assay.
# DMS-273 = assay type: functional, cell-based, Homo sapiens; settings: Homo sapiens, DMS-273
# Description: SANGER: Inhibition of human DMS-273 cell growth in a cell viability assay.
# OE19 = assay type: functional, cell-based, Homo sapiens; settings: Homo sapiens, OE19;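 note: growth inhibition of OE19 cells, measured through a cell viability read-out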
# Description: SANGER: Inhibition of human OE19 cell growth in a cell viability assay.
# KU812 cell line = assay type: functional, cell-based, Homo sapiens; settings: Homo sapiens, KU812;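 note: growth inhibition of KU812 cells, read out with a cell viability assay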
# Description: SANGER: Inhibition of human KU812 cell growth in a cell viability assay.
# OVCAR-8 = assay type: functional, cell-based, Homo sapiens; settings: Homo sapiens, OVCAR-8;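 note: growth inhibition of human OVCAR-8 cells, read out by a cell viability assay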
# Description: SANGER: Inhibition of human OVCAR-8 cell growth in a cell viability assay.
# MC116 = assay type: functional, cell-based, Homo sapiens; settings: Homo sapiens, MC116;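 note: growth inhibition of MC116 cells, read out with a cell viability assay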
# Description: SANGER: Inhibition of human MC116 cell growth in a cell viability assay.
# NCI-H1581 = assay type: functional, cell-based, Homo sapiens; settings: Homo sapiens, NCI-H1581;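 note: cell growth inhibition read out by a viability assay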
# Description: SANGER: Inhibition of human NCI-H1581 cell growth in a cell viability assay.
# CAL-62 = assay type: functional, cell-based, Homo sapiens; settings: Homo sapiens, CAL-62;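 note: growth inhibition of CAL-62 cells, read out with a cell viability assay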
# Description: SANGER: Inhibition of human CAL-62 cell growth in a cell viability assay.
# KOSC-2 = assay type: functional, cell-based, Homo sapiens; settings: Homo sapiens, KOSC-2;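 note: growth inhibition of KOSC-2 cells, read out by a cell viability assay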
# Description: SANGER: Inhibition of human KOSC-2 cell growth in a cell viability assay.
# CWR22R = assay type: functional, cell-based, Homo sapiens; settings: Homo sapiens, 22Rv1;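 note: growth inhibition of 22Rv1 cells, read out with a cell viability assay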
# Description: SANGER: Inhibition of human 22RV1 cell growth in a cell viability assay.
# HuO9 = assay type: functional, cell-based, Homo sapiens; settings: Homo sapiens, HuO9;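 note: growth inhibition of HuO9 cells, read out with a cell viability assay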
# Description: SANGER: Inhibition of human HuO9 cell growth in a cell viability assay.
# SK-MEL3 = assay type: functional, cell-based, Homo sapiens, SK-MEL-3; settings: Homo sapiens, SK-MEL3;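 note: growth inhibition of human SK-MEL-3 cells, read out with a cell viability assay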
# Description: SANGER: Inhibition of human SK-MEL-3 cell growth in a cell viability assay.
# PANC-03-27 = assay type: functional, cell-based, Homo sapiens; settings: Homo sapiens, PANC-03-27
# Description: SANGER: Inhibition of human PANC-03-27 cell growth in a cell viability assay.
# A-375 = assay type: functional, cell-based, Homo sapiens; settings: Homo sapiens, A-375;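 note: growth inhibition of A375 cells, read out with a cell viability assay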
# Description: SANGER: Inhibition of human A375 cell growth in a cell viability assay.
# MZ2-MEL = assay type: functional, cell-based, Homo sapiens; settings: Homo sapiens, MZ2-MEL;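 note: growth inhibition of MZ2-MEL cells read out with a cell viability assay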
# Description: SANGER: Inhibition of human MZ2-MEL cell growth in a cell viability assay.
smiles,measurement,setting,value
N#Cc1c(O)c2c(-c3ccc(-c4ccccc4O)cc3)csc2[nH]c1=O,IC50,DBTRG-05MG,> 1.02 µM
same,IC50,CPC-N,> 1.02 µM
same,IC50,LXF-289 cell line,> 1.02 µM
same,IC50,NCI-H2087,0.214 µM
same,IC50,VMRC-RCZ,> 1.02 µM
same,IC50,NCI-H2342,> 1.02 µM
same,IC50,SJRH30,0.495 µM
same,IC50,ME-180,> 1.02 µM
same,IC50,NCI-H716,> 1.02 µM
same,IC50,A2780,> 1.02 µM
same,IC50,LB996-RCC,> 1.02 µM
same,IC50,NCI-H720,> 1.02 µM
same,IC50,LNCaP-Clone-FGC,0.547 µM
same,IC50,MSTO-211H,> 1.02 µM
same,IC50,Calu-3,> 1.02 µM
same,IC50,MHH-ES-1,> 1.02 µM
same,IC50,HCC1569,> 1.02 µM
same,IC50,HCE-4,> 1.02 µM
same,IC50,MRK-nu-1,0.178 µM
same,IC50,UMUC3,> 1.02 µM
same,IC50,HT-3,> 1.02 µM
same,IC50,SK-MEL-24,> 1.02 µM
same,IC50,OS-RC-2,> 1.02 µM
same,IC50,Detroit 562,> 1.02 µM
same,IC50,MPP-89,> 1.02 µM
same,IC50,SK-N-DZ,0.802 µM
same,IC50,HOS,> 1.02 µM
same,IC50,THP-1,0.342 µM
same,IC50,D-542MG,> 1.02 µM
same,IC50,HSC-2,> 1.02 µM
same,IC50,NCI-H226,0.407 µM
same,IC50,LS-411N,> 1.02 µM
same,IC50,639-V,> 1.02 µM
same,IC50,HT-1376,> 1.02 µM
same,IC50,DMS-273,> 1.02 µM
same,IC50,OE19,> 1.02 µM
same,IC50,KU812 cell line,> 1.02 µM
same,IC50,OVCAR-8,> 1.02 µM
same,IC50,MC116,0.1 µM
same,IC50,NCI-H1581,> 1.02 µM
same,IC50,CAL-62,> 1.02 µM
same,IC50,KOSC-2,> 1.02 µM
same,IC50,CWR22R,> 1.02 µM
same,IC50,HuO9,> 1.02 µM
same,IC50,SK-MEL3,> 1.02 µM
same,IC50,PANC-03-27,> 1.02 µM
same,IC50,A-375,> 1.02 µM
same,IC50,MZ2-MEL,> 1.02 µM
CC(C)CCN1c2nc(Nc3cc(F)c(O)c(F)c3)ncc2N(C)C(=O)C1C (configuration not stated),IC50,DBTRG-05MG,> 5 µM
same,IC50,LXF-289 cell line,4.4 µM
same,IC50,NCI-H2087,> 5 µM
same,IC50,VMRC-RCZ,> 5 µM
same,IC50,NCI-H2342,> 5 µM
same,IC50,SJRH30,> 5 µM
same,IC50,ME-180,2.78 µM
same,IC50,A2780,> 5 µM
same,IC50,LB996-RCC,> 5 µM
same,IC50,NCI-H720,0.172 µM
same,IC50,LNCaP-Clone-FGC,3.7 µM
same,IC50,MSTO-211H,> 5 µM
same,IC50,Calu-3,> 5 µM
same,IC50,MHH-ES-1,4.83 µM
same,IC50,HCC1569,> 5 µM
same,IC50,HCE-4,> 5 µM
same,IC50,UMUC3,> 5 µM
same,IC50,HT-3,2.51 µM
same,IC50,SK-MEL-24,> 5 µM
same,IC50,OS-RC-2,> 5 µM
same,IC50,Detroit 562,> 5 µM
same,IC50,MPP-89,> 5 µM
same,IC50,SK-N-DZ,> 5 µM
same,IC50,HOS,4.46 µM
same,IC50,D-542MG,> 5 µM
same,IC50,HSC-2,> 5 µM
same,IC50,NCI-H226,> 5 µM
same,IC50,LS-411N,> 5 µM
same,IC50,639-V,2.72 µM
same,IC50,HT-1376,4.23 µM
same,IC50,DMS-273,> 5 µM
same,IC50,OE19,> 5 µM
same,IC50,KU812 cell line,0.626 µM
same,IC50,OVCAR-8,> 5 µM
same,IC50,MC116,> 5 µM
same,IC50,NCI-H1581,> 5 µM
same,IC50,CAL-62,0.882 µM
same,IC50,KOSC-2,1.13 µM
same,IC50,CWR22R,> 5 µM
same,IC50,HuO9,2.37 µM
same,IC50,SK-MEL3,> 5 µM
same,IC50,PANC-03-27,4.3 µM
same,IC50,A-375,4.05 µM
same,IC50,MZ2-MEL,> 5 µM

# Source: ChEMBL document CHEMBL1201861, “Genomics of Drug Sensitity in Cancer screening data, Wellcome Trust Sanger Institute”
